Assay results as given in patent publication US20250074902A1, “FUSED BICYCLIC HETEROARYL AMIDE COMPOUND AS PROTEIN AGGREGATION INHIBITOR” (SHANGHAI JINGXIN BIOMEDICAL CO., LTD., priority 2021, published 2025).

Assays:
α-synuclein = biological target: T1, α-synuclein (Homo sapiens, UniProt P37840); experiment: Detection of the ability of compounds to inhibit α-synuclein self-aggregation by HPLC; format: biochemical; conditions: test compound 200 μg/mL, α-synuclein 250 μg/ml, 37° C., 9 days; HPLC peak area of α-synuclein multimers vs model group; read-out: inhibition rate (%)
T1 construct: purchased Sino Biological
Protocol: The test compound (for poorly soluble compounds, dissolve with an appropriate amount of DMSO first) and fresh α-synuclein monomers (purchased from Sino Biological) were added to pure water to a final protein concentration of 250 μg/ml, and the concentration of the test compound was 200 μg/mL, followed by incubation at 37° C. for 9 days. The peak area of α-synuclein multimers after incubation was detected by HPLC and the inhibition rate was calculated. […] Inhibition rate=(peak area of model group−peak area of example group)/peak area of model group×100%.

[1] = Determination of half-life in C57BL/6 mice; format: in vivo; conditions: mouse, 2 mg/kg; male C57BL/6 mice, intravenous, 2 mpk, plasma
Protocol: C57BL/6 mice (male) were selected, and the compound of the present invention was intravenously administered at a dose of 2 mpk, About 0.03 mL of whole blood was collected from the mouse orbital venous plexus at 0 h before administration, 0.0833, 0.25, 0.5, 1, 2, 4, 6, 8 and 24 h after administration. The blood was placed in a centrifuge tube containing EDTA-K2 anticoagulant, and placed in crushed ice after collection. Centrifuge at 2000 g and 4° C. for 10 min within 0.5 hours, and 10 μL of plasma was quantitatively divided and placed in another clean centrifuge tube, placed in a −20° C. refrigerator, and the blood drug concentration was determined by LC-MS/MS method.

[2] = Determination of brain/plasma ratio; format: in vivo; conditions: mouse, male C57BL/6 mice, oral 10 mg/kg, ratio of average drug concentration in brain tissue to plasma
Protocol: Male C57BL/6 mice were used as research subjects, and brain perfusion technology was used to investigate the pharmacokinetic characteristics of the compound of the present invention transported through the blood-brain barrier, and the drug concentrations in the blood and brain tissue samples of mice after 0.25 h, 1 h, 4 h and 8 h were detected, and the ratio of the average drug concentrations in brain tissue and plasma was calculated.
Oral administration solution (1.000 mg·ml^−1) of the compound of the present invention was prepared:
Weigh 3.116 mg of the compound and place it in an EP tube, then add DMS 0.156 mL, Solutol 0.312 mL and ultrapure water 2.648 mL (the volume ratio of the three is 5:10:85, v:v:v), vortex ultrasound to fully dissolve it, and the final actual concentration is 1.000 mg·mL-1 of the clear administration solution.
C57BL/6 mice (male), purchased from Sibeifu (Beijing) Biotechnology Co., Ltd., experimental animal production license number: SCXK (Beijing) 2019-0010.
Fasting: Overnight fasting, no water withdrawal, feed provided 4 hours after medication.
Select qualified healthy C57BL/6 mice, 3 per group. After oral administration (10 mg/kg), about 150 μL of whole blood was collected from the orbital venous plexus of mice at 0.25 h, 1 h, 4 h and 8 h after medication and placed in a centrifuge tube containing EDTA-K2 anticoagulant. After administration, the mice were anesthetized about 1 minute before the scheduled time point, and brain perfusion was performed at 0.25 h, 1 h, 4 h and 8 h after administration. After perfusion, the mouse brain tissue samples were dissected with ophthalmic scissors and ophthalmic forceps, and the remaining blood on the tissue surface was immediately rinsed with ultrapure water within 5 min, wiped dry, weighed, and 4 times the volume of acetonitrile-water solution (10:90, v:v) was added and homogenized, and then the homogenate was placed in a −20° C. refrigerator for testing. The collected samples were placed in an ice bath during the entire experimental operation.
According to the time points specified in the above experimental protocol, about 150 μL of whole blood was collected from the orbital venous plexus of C57BL/6 mice after administration and placed in a 1.5 mL centrifuge tube containing EDTAN-K2. The collected whole blood was centrifuged at 2000 g, 4° C. for 10 min, and all plasma was divided and placed in another clean centrifuge tube, and then placed in a −20° C. refrigerator for testing.
Adjust the peristaltic pump device to ensure that it works normally, the liquid flows out smoothly and stably, and there is no air in the flow path. Anesthetize the mice after administration with a mixed anesthetic of 70% CO2 and 30% O2, After the animal is fully anesthetized, quickly open the chest cavity with surgical scissors to expose the heart. […] Turn on the peristaltic pump switch and perfuse for 2-5 minutes. The perfusion fluid is 100 U/1000 mL heparin sodium saline. After the perfusion is completed, use ophthalmic scissors and ophthalmic forceps to dissect the mouse brain tissue sample, immediately rinse the remaining blood on the tissue surface with ultrapure water within 5 minutes, wipe dry, weigh, add 4 times the volume of acetonitrile-water solution (10:90, v:v) and homogenize, and then place the homogenate in a −20° C. refrigerator for testing.
Calculate the ratio of the average drug concentration in brain tissue to that in plasma, i.e., the brain/plasma ratio.

## CCCC[C@@H](Cc1c[nH]c2ccccc12)NC(=O)c1cc2ccc(N3CCN(C)CC3)cc2s1 [Example 42, (S)—N-(1-(1H-indol-3-yl)hexane-2-yl)-6-(4-methylpiperazin-1-yl) benzo[b]thiophene-2-carboxamide]
α-synuclein
  inhibition at 200 µg/mL: 97.2%
[1]
  half-life: 1.17 h
[2]
  Kp at 4 h: 2.05

## CCCCC(Cc1c[nH]c2ccccc12)NC(=O)c1cc2ccc(N3CCN(C4CC4)CC3)cc2s1 (stereo not drawn) [Example 3, N-(1-(1H-indol-3-yl)hexane-2-yl)-6-(4-cyclopropylpiperazin-1-yl) benzo[b]-thiophene-2-carboxamide]
α-synuclein
  inhibition at 200 µg/mL: 95.3%
[1]
  half-life: 1.46 h
[2]
  Kp at 4 h: 0.38
